Results taken from PubChem BioAssay (NCI).
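Test compounds were applied to cells in 96-well plates for 48 hours at 5 doses. At the GI50, growth is halved. TGI: concentration producing complete growth inhibition.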

Tests used:
Assay in all cases: inhibition of tumour cell growth, NCI panel, 48 h
SK-MEL-2 melanoma = test system: SK-MEL-2 melanoma
SNB-19 CNS = test system: SNB-19 CNS
NCI-H226 lung = test system: NCI-H226 lung
LOX IMVI melanoma = test system: LOX IMVI melanoma
CAKI-1 renal = test system: CAKI-1 renal
SK-MEL-28 melanoma = test system: SK-MEL-28 melanoma
HCC-2998 colon = test system: HCC-2998 colon
OVCAR-8 ovarian = test system: OVCAR-8 ovarian
A498 renal = test system: A498 renal
MDA-MB-231 breast = test system: MDA-MB-231 breast

Row | Compound | GI50 (SK-MEL-2 melanoma) | TGI (SK-MEL-2 melanoma) | GI50 (SNB-19 CNS) | TGI (SNB-19 CNS) | GI50 (NCI-H226 lung) | TGI (NCI-H226 lung) | GI50 (LOX IMVI melanoma) | TGI (LOX IMVI melanoma) | GI50 (CAKI-1 renal) | TGI (CAKI-1 renal) | GI50 (SK-MEL-28 melanoma) | TGI (SK-MEL-28 melanoma) | GI50 (HCC-2998 colon) | TGI (HCC-2998 colon) | GI50 (OVCAR-8 ovarian) | TGI (OVCAR-8 ovarian) | GI50 (A498 renal) | TGI (A498 renal) | TGI (MDA-MB-231 breast) | GI50 (MDA-MB-231 breast)
1 | CCC[CH2][Sn]1([CH2]CCC)[O]CC(CN(C)Cc2ccccc2)[O]1 (stereo not drawn) | 4.27 µM | 15.9 µM | 12.6 µM | 25.2 µM | 17.2 µM | 35.8 µM | 4.12 µM | 16.2 µM | 1.47 µM | 7.13 µM | 13.3 µM | 26.5 µM | 11 µM | 23.3 µM | 11.9 µM | 24.6 µM | 15.1 µM | 29.4 µM |  | 
2 | Nc1nc2c(ncn2C2C=CC(CO)C2)c(=O)[nH]1 (stereo not drawn) |  | > 100 µM |  | > 100 µM |  | > 100 µM |  |  |  | > 100 µM |  | > 100 µM |  | > 100 µM |  | > 100 µM |  | > 100 µM | > 100 µM | 
3 | Cn1cnc([N+](=O)[O-])c1Sc1nccn1-c1cccc2ccccc12 |  | 37.5 µM |  | > 100 µM |  | 59.6 µM |  | 32.4 µM |  | > 100 µM |  | 67.8 µM |  | > 100 µM |  | 58.8 µM |  | > 100 µM |  | 
4 | Cc1cccc(C(C)(C)C)c1NC(=O)CC1C(=O)Nc2ccccc2S1(=O)=O (stereo not drawn) |  | 21.2 µM |  | 29.2 µM |  | 32.8 µM |  | 18.6 µM |  | 31.3 µM |  | 30.3 µM |  | 20.5 µM |  | 22.4 µM |  | 28.4 µM |  | 
5 | Nc1nnnn1CCO |  | > 100 µM |  | > 100 µM |  | > 100 µM |  | > 100 µM |  | > 100 µM |  | > 100 µM |  |  |  | > 100 µM |  | > 100 µM | > 100 µM | 
6 | S=C(Nc1ccc(-c2nc3ccccc3[nH]2)cc1)Nc1ccc(-c2nc3ccccc3[nH]2)cc1 | > 100 µM | > 100 µM | > 100 µM | > 100 µM | 39.2 µM | > 100 µM | > 100 µM | > 100 µM | 69.7 µM | > 100 µM | > 100 µM | > 100 µM | 45.8 µM | > 100 µM | 59.6 µM | > 100 µM |  |  | > 100 µM | 41.8 µM
7 | Cc1cccc(C)c1NC(=O)C1C(=O)N(c2c(C)cccc2C)C(=O)/C1=N\N (stereo not drawn) |  | > 100 µM |  | > 100 µM |  | > 100 µM |  | > 100 µM |  | > 100 µM |  | > 100 µM |  | > 100 µM |  | > 100 µM |  | > 100 µM |  | 
8 | CC(=O)C1C(c2ccc(N(C)C)cc2)c2cc3c(cc2OC1(C)O)OCO3 (stereo not drawn) |  | > 100 µM |  | > 100 µM |  |  |  | > 100 µM |  | 87.8 µM |  | > 100 µM |  |  |  | > 100 µM |  |  |  | 
9 | Oc1ccc2ccccc2c1N=Nc1ccsc1 |  | > 100 µM |  | > 100 µM |  | > 100 µM |  | > 100 µM |  | > 100 µM |  | > 100 µM |  | > 100 µM |  | > 100 µM |  | > 100 µM |  | 
10 | CC12CCC3(OCCO3)C(OC(=O)c3ccccc3)=C1CCC21OCCO1 (stereo not drawn) |  |  |  | > 100 µM |  | > 100 µM |  | > 100 µM |  | > 100 µM |  | > 100 µM |  | > 100 µM |  | > 100 µM |  | > 100 µM |  | 
11 | Cc1ccc(NC(=O)CC2Sc3ccccc3NC2=O)c(C)c1 (stereo not drawn) |  | 18.2 µM |  | 30.3 µM |  | 33.5 µM |  | > 100 µM |  | 63.3 µM |  | 75.9 µM |  | 27.3 µM |  | 37.4 µM |  | 30.1 µM |  | 
12 | C/C(CC(=O)Nc1ccc(C)c(C)c1)=N\NC(N)=O |  | > 100 µM |  |  |  | > 100 µM |  | > 100 µM |  |  |  | > 100 µM |  | > 100 µM |  | > 100 µM |  | > 100 µM |  | 
13 | NCC1OC(n2cnc3c(N)ncnc32)CC1O (stereo not drawn) |  | > 100 µM |  | > 100 µM |  | > 100 µM |  | > 100 µM |  | > 100 µM |  | > 100 µM |  |  |  | > 100 µM |  | > 100 µM | > 100 µM | 
14 | COc1c2ccoc2c(OC)c2oc(=O)ccc12 |  |  |  | > 100 µM |  | > 100 µM |  | > 100 µM |  | > 100 µM |  | > 100 µM |  | > 100 µM |  | > 100 µM |  | > 100 µM | > 100 µM | 
15 | O=[P+](O)c1ccsc1 |  |  |  |  |  |  |  | > 100 µM |  | > 100 µM |  | > 100 µM |  |  |  | > 100 µM |  | > 100 µM |  | 
16 | NCCOCCOCCNc1nc(-c2ccccc2)nc(N2CCN(c3ccccn3)CC2)n1 |  |  |  |  | 17.1 µM | 32.3 µM | 8.3 µM | 21.3 µM | 15.9 µM | 31.5 µM | 3.9 µM | 13.8 µM | 8.86 µM | 22.3 µM | 15.8 µM | 34.5 µM | 3.91 µM | 18.4 µM | 28.8 µM | 14.5 µM
17 | CCOC(=O)c1cc2c(cc1Cl)SC(N(c1ccc(OC)cc1)S(=O)(=O)c1ccc(Cl)cc1)=NS2(=O)=O | 24.7 µM | > 100 µM | 36.8 µM | > 100 µM | 94.1 µM | > 100 µM | 18.7 µM | 38.3 µM | 35.8 µM | > 100 µM | 20.8 µM | 59.9 µM | > 100 µM | > 100 µM |  |  | 80.8 µM | > 100 µM | > 100 µM | 47 µM
18 | C=C1CCC2C3(C)COC(c4ccccc4)OC3CCC2(C)C1/C=C/C1=CCOC1=O (stereo not drawn) | 4.81 µM | 15.9 µM | 35.8 µM | > 100 µM | 3.81 µM | 13.5 µM | 1.7 µM | 4.25 µM |  |  | 9.15 µM | 26.6 µM | 7.75 µM | 19.4 µM | 4.11 µM | > 100 µM | 17.9 µM | 46 µM | 43 µM | 12.5 µM
19 | O=c1c(Br)cc2nc3ccccc3sc-2c1Br |  | > 100 µM |  | > 100 µM |  | > 100 µM |  | > 100 µM |  | > 100 µM |  | > 100 µM |  | > 100 µM |  | 41.4 µM |  | > 100 µM |  | 
20 | O=C(O)CCC(N=Cc1nc(-c2ccccc2)oc1O)C(=O)O (stereo not drawn) |  | > 100 µM |  | > 100 µM |  | > 100 µM |  |  |  | > 100 µM |  | > 100 µM |  | > 100 µM |  | > 100 µM |  | > 100 µM |  | 
21 | CCOC(=O)N1CCC(=O)C(CNC23CC4CC(CC(C4)C2)C3)C1 (stereo not drawn) |  | > 100 µM |  | > 100 µM |  | > 100 µM |  | 41.5 µM |  |  |  | 32.1 µM |  |  |  | 44.5 µM |  | > 100 µM |  | 
22 | CC(C)([NH-])CO.CC(C)([NH-])CO.[Cl][Cd][Cl] | 15.6 µM | 29.8 µM | > 100 µM | > 100 µM | 7.84 µM | 20.9 µM |  |  | 18.3 µM | 32.3 µM | 16.5 µM | 30.1 µM | 19.3 µM | 59.5 µM | 52.8 µM | > 100 µM |  |  |  | 
